Source: article PMC9029992, “New α-galactosidase-inhibiting aminohydroxycyclopentanes” (RSC Advances, 2021)
Like-named read-outs stand apart in the source and are kept apart here.

How the values were obtained:
[1] = target: T1, β-glucosidase/β-galactosidase from Agrobacterium sp. (Abg, GH 1) (Agrobacterium sp., UniProt P12614); experiment: Ki determination with Agrobacterium sp. β-glucosidase (Abg); assay type: biochemical; conditions: pH 7, substrate Gal-β-pNP, room temperature; read-out: Ki Abg (β-Glc/β-Gal) (GH 1)
T1 sequence (P12614 1-459): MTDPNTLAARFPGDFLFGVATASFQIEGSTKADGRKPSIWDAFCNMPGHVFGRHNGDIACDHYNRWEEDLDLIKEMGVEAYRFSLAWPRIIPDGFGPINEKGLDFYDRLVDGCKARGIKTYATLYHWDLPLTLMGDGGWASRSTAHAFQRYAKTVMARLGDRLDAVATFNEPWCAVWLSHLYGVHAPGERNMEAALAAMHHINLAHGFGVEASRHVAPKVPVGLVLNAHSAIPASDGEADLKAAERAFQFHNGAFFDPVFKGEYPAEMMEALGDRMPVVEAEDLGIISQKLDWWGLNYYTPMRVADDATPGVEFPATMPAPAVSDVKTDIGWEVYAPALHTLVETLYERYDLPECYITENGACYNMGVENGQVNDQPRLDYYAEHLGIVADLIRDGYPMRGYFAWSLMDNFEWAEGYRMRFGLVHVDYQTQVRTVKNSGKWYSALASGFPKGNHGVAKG
Experimental: (§1) Kinetic studies were performed at room temperature in an appropriate buffer for each enzyme (specific conditions can be found below). All reactions were performed in half-area 96-well-plates (Corning) and monitored with a Synergy H1 plate reader (BioTek). In each experiment, the appropriate concentration of the enzyme was incubated with different concentrations of the inhibitors for 2–5 minutes before initiating the reaction by the addition of the glycoside substrate. The initial rate was then measured by monitoring the increase in, either absorbance at 405 nm (where the aglycone is either p-nitrophenol (pNP) or 2,4-dinitrophenol (dNP)) or fluorescence at 365/455 nm (where the aglycone is 4-methylumbelliferone (MU)) for up to five minutes. Ki determinations were performed using two different substrate concentrations. For each substrate concentration, a range of three to six inhibitor concentrations was used. Dixon plots (1/v vs. [I]) were constructed to validate the use of competitive inhibition model and to assess the fit of the data. The data were then fit to a competitive inhibition model using non-linear regression analysis with Grafit 7.0.0. (Erithacus Software).
Agrobacterium sp. β-glucosidase:[48,49]

[2] = target: lac Z β-galactosidase from E. coli (GH 2) (Escherichia coli, UniProt P00722); experiment: Ki determination with E. coli lac Z β-galactosidase; assay type: biochemical; conditions: pH 7, substrate Gal-β-pNP, room temperature
Experimental: as §1

[3] = target: T2, Fabrazyme® (commercial recombinant lysosomal α-galactosidase, GH 27) (Homo sapiens, UniProt P06280); experiment: Ki determination with Fabrazyme (acid α-galactosidase); assay type: biochemical; conditions: pH 5.5, substrate Gal-α-dNP, room temperature
T2 construct: purchased
T2 sequence (P06280 32-429): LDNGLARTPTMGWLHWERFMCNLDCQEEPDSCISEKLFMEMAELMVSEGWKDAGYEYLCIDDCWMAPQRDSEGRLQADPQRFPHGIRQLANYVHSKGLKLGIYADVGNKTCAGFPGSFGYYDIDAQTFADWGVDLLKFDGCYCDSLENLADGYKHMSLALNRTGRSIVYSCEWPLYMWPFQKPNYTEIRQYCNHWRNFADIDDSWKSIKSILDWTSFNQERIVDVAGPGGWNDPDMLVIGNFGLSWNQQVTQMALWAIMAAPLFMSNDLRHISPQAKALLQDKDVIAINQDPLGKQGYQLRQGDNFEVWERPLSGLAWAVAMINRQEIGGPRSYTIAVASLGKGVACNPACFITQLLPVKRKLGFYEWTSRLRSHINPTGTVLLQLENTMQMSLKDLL
Experimental: as §1

[4] = target: T3, α-galactosidase from green coffee beans (gcb, GH 27) (Coffea arabica, UniProt Q42656); experiment: Ki determination with green coffee bean α-galactosidase; assay type: biochemical; conditions: pH 7, substrate Gal-α-MU, room temperature
T3 construct: Green coffee bean α-galactosidase: 50 mM sodium phosphate buffer (pH 7); from tissue; host or cells: green coffee beans
Experimental: as §1

[5] = target: α-glucosidase from S. cerevisiae (GH 13); experiment: Ki determination with S. cerevisiae α-glucosidase; assay type: biochemical; conditions: pH 7, substrate Glc-α-pNP, room temperature; read-out: Ki S. cer. (α-Glc) (GH 13)
Experimental: as §1
S. cerevisiae α-glucosidase: 50 mM sodium phosphate buffer (pH 7). Substrate: Glc-α-pNP, Km = 0.75 mM.

[6] = target: T4, recombinant human lysosomal β-glucocerebrosidase (GCase, GH 30) (Homo sapiens, UniProt P04062); experiment: Ki determination with GCase (β-glucocerebrosidase); assay type: biochemical; conditions: pH 7, substrate Glc-β-dNP, room temperature
T4 sequence (P04062 40-536): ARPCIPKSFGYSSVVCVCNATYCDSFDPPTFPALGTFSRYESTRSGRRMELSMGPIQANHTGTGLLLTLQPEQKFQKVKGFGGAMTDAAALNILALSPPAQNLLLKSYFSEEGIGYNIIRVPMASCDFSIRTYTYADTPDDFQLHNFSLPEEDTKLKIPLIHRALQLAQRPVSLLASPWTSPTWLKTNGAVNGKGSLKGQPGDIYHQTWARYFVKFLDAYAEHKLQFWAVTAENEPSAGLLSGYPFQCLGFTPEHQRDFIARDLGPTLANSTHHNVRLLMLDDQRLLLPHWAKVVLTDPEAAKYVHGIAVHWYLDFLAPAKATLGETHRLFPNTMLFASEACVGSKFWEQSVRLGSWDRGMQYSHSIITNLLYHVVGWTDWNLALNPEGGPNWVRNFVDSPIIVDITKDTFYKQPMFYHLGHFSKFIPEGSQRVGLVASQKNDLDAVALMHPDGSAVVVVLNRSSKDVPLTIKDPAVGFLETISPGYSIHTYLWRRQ
Experimental: as §1

[7] = target: T3, α-galactosidase from green coffee beans (gcb, GH 27); conditions: cited from earlier work
[8] = target: T2, Fabrazyme® (commercial recombinant lysosomal α-galactosidase, GH 27); conditions: cited from earlier work
[9] = system: α-galactosidase from E. coli (GH 36); conditions: cited from earlier work
[10] = target: α-glucosidase from S. cerevisiae (GH 13); set-up: method as in PMID 2825997; conditions: yeast; read-out: Ki α-Glc (yeast); cited from earlier work
[11] = system: bovine liver α-galactosidase; set-up: method as in PMID 15858658; conditions: cited from earlier work
β-glucosidase (almonds) = target: β-glucosidase (almonds); set-up: method as in PMID 15064801; conditions: reported in literature, read-out: inhibitory activity against β-glucosidase; cited from earlier work
[12] = read-out: Ki gcb α-galactosidase

lac Z β-galactosidase from E. coli (GH 2), sequence (P00722 2-1024 limits assumed): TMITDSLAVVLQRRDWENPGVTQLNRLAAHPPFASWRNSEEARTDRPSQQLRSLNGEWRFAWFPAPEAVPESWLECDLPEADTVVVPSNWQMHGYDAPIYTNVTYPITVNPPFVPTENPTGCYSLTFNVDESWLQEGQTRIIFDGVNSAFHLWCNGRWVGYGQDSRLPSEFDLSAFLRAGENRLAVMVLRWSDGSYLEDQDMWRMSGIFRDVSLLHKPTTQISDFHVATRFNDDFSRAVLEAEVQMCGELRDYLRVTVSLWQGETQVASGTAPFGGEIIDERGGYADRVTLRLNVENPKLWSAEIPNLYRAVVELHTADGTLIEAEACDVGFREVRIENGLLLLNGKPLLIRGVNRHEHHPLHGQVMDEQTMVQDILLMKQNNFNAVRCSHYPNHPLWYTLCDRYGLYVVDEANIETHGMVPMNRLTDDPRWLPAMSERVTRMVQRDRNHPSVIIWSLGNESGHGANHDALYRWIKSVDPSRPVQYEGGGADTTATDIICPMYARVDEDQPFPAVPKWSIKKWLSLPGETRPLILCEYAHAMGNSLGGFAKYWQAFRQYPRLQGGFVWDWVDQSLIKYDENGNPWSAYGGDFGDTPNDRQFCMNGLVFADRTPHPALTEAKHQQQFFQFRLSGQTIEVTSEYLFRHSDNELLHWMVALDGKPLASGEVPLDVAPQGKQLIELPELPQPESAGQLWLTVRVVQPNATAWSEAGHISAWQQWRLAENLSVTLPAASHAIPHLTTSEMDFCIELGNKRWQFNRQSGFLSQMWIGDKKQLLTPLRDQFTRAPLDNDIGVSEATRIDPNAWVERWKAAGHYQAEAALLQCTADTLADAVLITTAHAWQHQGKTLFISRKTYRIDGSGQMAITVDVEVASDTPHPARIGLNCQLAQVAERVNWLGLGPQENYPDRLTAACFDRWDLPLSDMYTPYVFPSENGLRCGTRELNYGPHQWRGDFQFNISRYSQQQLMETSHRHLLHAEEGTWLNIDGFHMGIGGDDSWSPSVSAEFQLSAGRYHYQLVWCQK
T3 sequence (Q42656 16-378): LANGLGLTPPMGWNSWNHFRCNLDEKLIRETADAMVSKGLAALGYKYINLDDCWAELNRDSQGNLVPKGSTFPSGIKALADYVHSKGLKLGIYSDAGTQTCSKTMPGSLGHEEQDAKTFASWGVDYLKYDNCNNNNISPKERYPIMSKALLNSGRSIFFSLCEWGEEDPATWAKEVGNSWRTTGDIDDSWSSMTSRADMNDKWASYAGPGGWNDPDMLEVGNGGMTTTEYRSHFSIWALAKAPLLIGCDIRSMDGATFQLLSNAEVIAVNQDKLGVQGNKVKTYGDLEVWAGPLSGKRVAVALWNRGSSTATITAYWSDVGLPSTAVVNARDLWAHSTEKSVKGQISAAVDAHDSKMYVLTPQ

SMILES: CCCCCCCCCN[C@@H]1[C@H](O)[C@@H](O)[C@@H](O)[C@H]1CO [compound 24, (1S,2S,3S,4S,5R)-4-(n-Nonylamino)-5-(hydroxymethyl)cyclopentane-1,2,3-triol]
- Ki [1]: 0.0037 ± 0.0016 µM
- Ki [2]: 23 ± 7 µM
- Ki [3]: 0.52 ± 0.21 µM
- Ki [4]: 0.25 ± 0.05 µM
- Ki [5]: 73 ± 17 µM
- Ki [6]: 1.2 ± 0.5 µM

SMILES: OC[C@H]1NC[C@@H](O)[C@H]1O [compound 7, 1,4-dideoxy-1,4-imino-D-lyxitol]
- Ki [7, 12]: 0.13 µM

SMILES: CN(C)c1cccc2c(S(=O)(=O)NCCCCCCN[C@@H]3[C@H](O)[C@@H](O)[C@@H](O)[C@H]3CO)cccc12 [compound 27, 5-(Dimethylamino)-N-(6-(((1S,2S,3S,4S,5R)-2,3,4-trihydroxy-5-(hydroxymethyl)cyclopentyl)amino)hexyl)naphthalene-1-sulfonamide]
- Ki [1]: 0.005 ± 0.001 µM
- Ki [2]: 7.8 ± 4.6 µM
- Ki [3]: 4.4 ± 1.1 µM
- Ki [4]: 0.14 ± 0.04 µM
- Ki [5]: 16 ± 4 µM
- Ki [6]: 0.63 ± 0.09 µM

SMILES: CCCCCCN1C[C@@H](O)[C@@H](O)[C@@](F)(CO)C1 [compound 4]
- Ki ([8]; read-out: Ki Fabrazyme®): 116 µM
- Ki [7, 12]: 0.5 µM

SMILES: OC[C@H]1CNC[C@@H](O)[C@H]1O [compound 3, 4-epi-isofagomine]
- IC50 ([7]; read-out: IC50 gcb): 200 µM

SMILES: N[C@H]1C[C@H](CO)[C@H](O)[C@H](O)[C@H]1O [compound 5, 4-epi-validamine]
- IC50 ([7]; read-out: IC50 gcb): 500 µM
- IC50 ([9]; read-out: IC50 E. coli): 890 µM

SMILES: N[C@@H]1[C@H](O)[C@@H](O)[C@@H](O)[C@]2(CO)C[C@H]12 [compound 6]
- Ki ([7]; read-out: Ki gcb): 0.54 µM
- IC50 ([9]; read-out: IC50 E. coli): 80 µM

SMILES: O=S1(=O)N[C@@H]2[C@H](O)[C@@H](O)[C@@H](O)[C@@H](CO)[C@@H]2O1 [compound 11]
- IC50 ([8]; as printed in Fig. 1): 110 µM
- Ki ([8]; read-out: Ki Fabrazyme® (α-Gal) (GH 27)): 110 µM

SMILES: N[C@@H]1[C@H](O)[C@@H](O)[C@@H](O)[C@H]1CO [compound 22, (1S,2S,3S,4S,5R)-4-Amino-5-(hydroxymethyl)cyclopentane-1,2,3-triol]
- Ki [1]: 0.014 ± 0.003 µM
- Ki [2]: 200 ± 90 µM
- Ki [3]: 9.5 ± 1.9 µM
- Ki [4]: 6.7 ± 0.9 µM
- Ki [5]: 160 ± 60 µM
- Ki [6]: 18 ± 3 µM
- Ki ([7]; read-out: Ki gcb (α-Gal) (GH 27) (converted)): 12 µM

SMILES: OC[C@@H]1C[C@@H](O)[C@@H](O)[C@@H](CO)N1 [compound 2]
- IC50 ([7]; read-out: IC50 gcb galactosidase): 0.06 µM
- IC50 ([9]; read-out: IC50 E. coli enzyme): 32 µM

SMILES: Cc1c(OCC(F)(F)F)ccnc1C[S+]([O-])c1nc2ccccc2[nH]1 (stereo not shown) [lansoprazole]
- IC50 ([7]; read-out: IC50 gcb α-galactosidase): 6.4 µM

SMILES: OC[C@H]1NC[C@H](O)[C@@H](O)[C@H]1O [compound 1, 1,5-dideoxy-1,5-imino-D-galactitol]
- Ki [10]: > 1000 µM
- IC50 ([9]; read-out: IC50 α-galactosidase from E. coli): 0.24 µM

SMILES: OC[C@@H]1[C@H](O)[C@H](O)[C@@H](O)[C@H]1NCc1ccccc1 [compound 12]
- Ki [7, 12]: 0.43 µM
- inhibitory activity against bovine liver α-galactosidase [11]: does not show any inhibitory activity
- Ki (β-glucosidase (almonds)): 0.51 µM

SMILES: CCCCCCN[C@@H]1[C@H](O)[C@@H](O)[C@@H](O)[C@H]1CO [compound 23, (1S,2S,3S,4S,5R)-4-(n-Hexylamino)-5-(hydroxymethyl)cyclopentane-1,2,3-triol]
- Ki [1]: 0.013 ± 0.003 µM
- Ki [2]: 120 ± 20 µM
- Ki [3]: 4.9 ± 0.9 µM
- Ki [4]: 0.19 ± 0.05 µM
- Ki [5]: 130 ± 40 µM
- Ki [6]: 40 ± 8 µM
